Source: patent US20230019236A1, “PROTEIN TYROSINE PHOSPHATASE INHIBITORS AND METHODS OF USE THEREOF” (Calico Life Sciences LLC, priority 2019, published 2023)

target: T1, His tagged full-length PTP1B protein (Homo sapiens, UniProt P18031); test: Mobility Shift Assay (MSA) used to determine potency of PTP1B inhibitors; format: biochemical; conditions: Table 2
T1 construct: made in house
T1 sequence (P18031 with tags, fused parts or gaps): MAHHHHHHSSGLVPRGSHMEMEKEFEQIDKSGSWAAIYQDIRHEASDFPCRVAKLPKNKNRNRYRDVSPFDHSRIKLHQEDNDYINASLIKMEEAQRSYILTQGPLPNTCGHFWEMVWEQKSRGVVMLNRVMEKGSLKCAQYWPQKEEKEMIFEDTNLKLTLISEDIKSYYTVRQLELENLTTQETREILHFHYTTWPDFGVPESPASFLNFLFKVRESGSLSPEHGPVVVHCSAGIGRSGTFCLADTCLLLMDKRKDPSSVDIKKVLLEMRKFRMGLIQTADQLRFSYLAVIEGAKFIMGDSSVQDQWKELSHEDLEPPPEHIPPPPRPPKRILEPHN
Description: The enzymatic assay used to determine activity is a mobility shift assay using a LabChip EZ Reader by Caliper Life Sciences. The enzymatic reaction was carried out in assay buffer (50 mM HEPES pH 7.5, 1 mM EGTA, 10 mM EDTA, 0.01% Tween® 20, and 2 mM DTT). […] The enzyme (at 0.5 nM) was incubated with compound for 10 minutes at room temperature. […] The % inhibition was then used to calculate the IC50 values.

First: O=C1CN(c2c(O)cc3ccc(OCc4cn[nH]c4)cc3c2F)S(=O)(=O)N1 [Compound 133, 5-{1-fluoro-3-hydroxy-7-[(1H-pyrazol-4-yl)methoxy]naphthalen-2-yl}-1λ6,2,5-thiadiazolidine-1,1,3-trione]
Second: CCOc1ccc2cc(O)c(N3CC(=O)NS3(=O)=O)c(F)c2c1 [Compound 301, 5-(7-ethoxy-1-fluoro-3-hydroxynaphthalen-2-yl)-1λ^6,2,5-thiadiazolidine-1,1,3-trione]
The IC50 of the first is lower: 1 to 10 nM for the first, greater than 100 nM for the second.

First: O=C1CN(c2c(O)cc3ccc(OCCC(F)(F)F)cc3c2F)S(=O)(=O)N1 [Compound 180, 5-[1-fluoro-3-hydroxy-7-(3,3,3-trifluoropropoxy)naphthalen-2-yl]-1λ^6,2,5-thiadiazolidine-1,1,3-trione]
Second: O=C1CN(c2c(O)cc3ccc(OCC(F)(F)F)cc3c2F)S(=O)(=O)N1 [Compound 197, 5-[1-fluoro-3-hydroxy-7-(2,2,2-trifluoroethoxy)naphthalen-2-yl]-1λ^6,2,5-thiadiazolidine-1,1,3-trione]
The IC50 of the first is lower: 10 to 100 nM for the first, greater than 100 nM for the second.

`COC/C=C/c1ccc2cc(O)c(N3CC(=O)NS3(=O)=O)c(F)c2c1` [Compound 245, 5-{1-fluoro-3-hydroxy-7-[(1E)-3-methoxyprop-1-en-1-yl]naphthalen-2-yl}-1λ^6,2,5-thiadiazolidine-1,1,3-trione] and `C[C@H](O)CCOc1ccc2cc(O)c(N3CC(=O)NS3(=O)=O)c(F)c2c1` [Compound 147, 5-{1-fluoro-3-hydroxy-7-[(3S)-3-hydroxybutoxy]naphthalen-2-yl}-1λ^6,2,5-thiadiazolidine-1,1,3-trione] fall in the same range of IC50: 1 to 10 nM for the first, 1 to 10 nM for the second.

`COC(C)(C)CCOc1ccc2cc(O)c(N3CC(=O)NS3(=O)=O)c(F)c2c1` [Compound 170, 5-[1-fluoro-3-hydroxy-7-(3-methoxy-3-methylbutoxy)naphthalen-2-yl]-1λ^6,2,5-thiadiazolidine-1,1,3-trione] and `CC(C)(CC#N)CCOc1ccc2cc(O)c(N3CC(=O)NS3(=O)=O)c(F)c2c1` [Compound 115, 5-{[8-fluoro-6-hydroxy-7-(1,1,4-trioxo-1λ^6,2,5-thiadiazolidin-2-yl)naphthalen-2-yl]oxy}-3,3-dimethylpentanenitrile] fall in the same range of IC50: 1 to 10 nM for the first, 1 to 10 nM for the second.

`O=C1CN(c2c(O)cc3ccc(C4=CCN(S(=O)(=O)C5CCC5)C4)cc3c2F)S(=O)(=O)N1` [Compound 316, 5-{7-[1-(cyclobutanesulfonyl)-2,5-dihydro-1H-pyrrol-3-yl]-1-fluoro-3-hydroxynaphthalen-2-yl}-1λ^6,2,5-thiadiazolidine-1,1,3-trione] and `CC(C)CCS(=O)(=O)N1CC=C(c2ccc3cc(O)c(N4CC(=O)NS4(=O)=O)c(F)c3c2)C1` [Compound 313, 5-{1-fluoro-3-hydroxy-7-[1-(3-methylbutane-1-sulfonyl)-2,5-dihydro-1H-pyrrol-3-yl]naphthalen-2-yl}-1λ^6,2,5-thiadiazolidine-1,1,3-trione] cannot be ordered by IC50: less than 1 nM for the first, less than 1 nM for the second.

`CCN(CC)C(=O)COc1ccc2cc(O)c(N3CC(=O)NS3(=O)=O)c(F)c2c1` [Compound 282, N,N-diethyl-2-{[8-fluoro-6-hydroxy-7-(1,1,4-trioxo-1λ^6,2,5-thiadiazolidin-2-yl)naphthalen-2-yl]oxy}acetamide] and `CCNCCOc1ccc2cc(O)c(N3CC(=O)NS3(=O)=O)c(F)c2c1` [Compound 144, 5-{7-[2-(ethylamino)ethoxy]-1-fluoro-3-hydroxynaphthalen-2-yl}-1λ^6,2,5-thiadiazolidine-1,1,3-trione] fall in the same range of IC50: 10 to 100 nM for the first, 10 to 100 nM for the second.

First: O=C1CN(c2c(O)cc3ccc(C4=CCOCC4)cc3c2F)S(=O)(=O)N1 [Compound 264, 5-[7-(3,6-dihydro-2H-pyran-4-yl)-1-fluoro-3-hydroxynaphthalen-2-yl]-1λ^6,2,5-thiadiazolidine-1,1,3-trione]
Second: O=C1CN(c2c(O)cc3ccc(C4=CCNC4)cc3c2F)S(=O)(=O)N1 [Compound 265, 5-[7-(2,5-dihydro-1H-pyrrol-3-yl)-1-fluoro-3-hydroxynaphthalen-2-yl]-1λ^6,2,5-thiadiazolidine-1,1,3-trione]
The IC50 of the first is higher: 10 to 100 nM for the first, 1 to 10 nM for the second. The second is the more potent here.

First: COc1ccc2c(Br)c(O)c(N3CC(=O)NS3(=O)=O)c(F)c2c1 [Compound 243, 5-(4-bromo-1-fluoro-3-hydroxy-7-methoxynaphthalen-2-yl)-1λ^6,2,5-thiadiazolidine-1,1,3-trione]
Second: COc1ccc2c(F)c(O)c(N3CC(=O)NS3(=O)=O)c(F)c2c1 [Compound 117, 5-(1,4-difluoro-3-hydroxy-7-methoxynaphthalen-2-yl)-1λ^6,2,5-thiadiazolidine-1,1,3-trione]
The IC50 of the first is higher: greater than 100 nM for the first, 1 to 10 nM for the second. The second is the more potent here.

Compared with `O=C1CN(c2c(O)cc3ccc(CC4CCN(CC(F)(F)F)CC4)cc3c2F)S(=O)(=O)N1` [Compound 252, 5-(1-fluoro-3-hydroxy-7-{[1-(2,2,2-trifluoroethyl)piperidin-4-yl]methyl}naphthalen-2-yl)-1λ^6,2,5-thiadiazolidine-1,1,3-trione], `O=C1CN(c2c(O)cc3ccc(OCCN4CCCCC4)cc3c2F)S(=O)(=O)N1` [Compound 112, 5-{1-fluoro-3-hydroxy-7-[2-(piperidin-1-yl)ethoxy]naphthalen-2-yl}-1λ^6,2,5-thiadiazolidine-1,1,3-trione] is higher in IC50: 1 to 10 nM for the first, 10 to 100 nM for the second. The first is the more potent here.

`CNC(=O)CCCOc1ccc2cc(O)c(N3CC(=O)NS3(=O)=O)c(F)c2c1` [Compound 269, 4-{[8-fluoro-6-hydroxy-7-(1,1,4-trioxo-1λ^6,2,5-thiadiazolidin-2-yl)naphthalen-2-yl]oxy}—N-methylbutanamide] and `CCNC(=O)NCCOc1ccc2cc(O)c(N3CC(=O)NS3(=O)=O)c(F)c2c1` [Compound 270, N-ethyl-N′-(2-{[8-fluoro-6-hydroxy-7-(1,1,4-trioxo-1λ^6,2,5-thiadiazolidin-2-yl)naphthalen-2-yl]oxy}ethyl)urea] fall in the same range of IC50: 1 to 10 nM for the first, 1 to 10 nM for the second.

First: N#CCCCCS(=O)(=O)N1CC=C(c2ccc3cc(O)c(N4CC(=O)NS4(=O)=O)c(F)c3c2)C1 [Compound 293, 5-{3-[8-fluoro-6-hydroxy-7-(1,1,4-trioxo-1λ^6,2,5-thiadiazolidin-2-yl)naphthalen-2-yl]-2,5-dihydro-1H-pyrrole-1-sulfonyl}pentanenitrile]
Second: O=C1CN(c2c(O)cc3ccc(NCCNS(=O)(=O)C4CC4)cc3c2F)S(=O)(=O)N1 [Compound 125, N-(2-{[8-fluoro-6-hydroxy-7-(1,1,4-trioxo-1λ^6,2,5-thiadiazolidin-2-yl)naphthalen-2-yl]amino}ethyl)cyclopropanesulfonamide]
The IC50 of the first is lower: less than 1 nM for the first, 10 to 100 nM for the second. The first is the more potent here.

First: [2H]C1([2H])C(=O)NS(=O)(=O)N1c1c(O)cc2ccc(OC)cc2c1F [Compound 123, 5-(1-fluoro-3-hydroxy-7-methoxynaphthalen-2-yl)(4,4-^2H2)-1λ^6,2,5-thiadiazolidine-1,1,3-trione]
Second: COc1ccc2cc(O)c(N3CC(=O)NS3(=O)=O)c(F)c2c1F [Compound 205, 5-(1,8-difluoro-3-hydroxy-7-methoxynaphthalen-2-yl)-1λ^6,2,5-thiadiazolidine-1,1,3-trione]
The IC50 of the first is lower: 1 to 10 nM for the first, 10 to 100 nM for the second.

With `O=C1CN(c2c(O)cc3ccc(OCC(=O)N4CCCC4)cc3c2F)S(=O)(=O)N1` [Compound 283, 5-{1-fluoro-3-hydroxy-7-[2-oxo-2-(pyrrolidin-1-yl)ethoxy]naphthalen-2-yl}-1λ^6,2,5-thiadiazolidine-1,1,3-trione] the IC50 was 10 to 100 nM.
